Test results: patent US9255101B2 (BIOPROJECT, priority 2012, dated 2016)
pIC50, pKi: −log10 of the molar value. Where two headings read alike, the source gives them in different places.

Experiments:
human H4 receptor [1] = target: T1, human H4 receptor (Homo sapiens, UniProt Q9H3N8); test: biochemical
human H4 receptor [2] = target: T1, human H4 receptor; test: biochemical; remark: listed apart in the source
human H4 receptor [3] = target: T1, human H4 receptor
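Wherever pIC50 is given: membranes from SH-SY5Y cells with stable human H4 receptor expression, incubated with GDP 10 µM, radioactivity retained on filters counted by liquid scintillation.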
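Wherever pKi is given: radioligand displacement of a [3H]-labelled ligand from membranes of CHO cells stably expressing human H4 receptor, bound radioactivity counted on filters by liquid scintillation.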

T1 sequence (Q9H3N8 whole entry): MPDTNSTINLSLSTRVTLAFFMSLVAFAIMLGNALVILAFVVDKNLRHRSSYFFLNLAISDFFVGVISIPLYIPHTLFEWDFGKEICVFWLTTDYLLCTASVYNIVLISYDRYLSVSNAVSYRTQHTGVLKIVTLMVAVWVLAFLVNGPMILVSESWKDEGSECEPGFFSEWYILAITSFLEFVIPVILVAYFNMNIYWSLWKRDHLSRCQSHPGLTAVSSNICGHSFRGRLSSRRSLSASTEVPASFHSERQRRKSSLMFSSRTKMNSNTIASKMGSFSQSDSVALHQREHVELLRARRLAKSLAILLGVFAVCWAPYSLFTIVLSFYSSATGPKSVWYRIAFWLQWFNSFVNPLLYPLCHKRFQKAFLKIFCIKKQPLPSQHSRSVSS

SMILES | melting point | pIC50 (human H4 receptor [1]) | pKi (human H4 receptor [2]) | pKi (human H4 receptor [3])
Cc1c(-c2cccc(F)c2)nc2n1CCc1ccccc1C2OC1CCN(C)CC1 (stereo not drawn) [Example 143, 2-(3-fluorophenyl)-1-methyl-4-(1-methylpiperidin-4-yloxy)-9,10-dihydro-4H-3,10a-diaza-benzo[f]azulene] | 132 °C | > 7.52 | > 7.52 | –
Cc1c(-c2ccccc2Cl)nc2n1CCc1ccccc1C2OC1CCN(C)CC1 (stereo not drawn) [Example 146, 2-(2-chlorophenyl)-1-methyl-4-(1-methylpiperidin-4-yloxy)-9,10-dihydro-4H-3,10a-diaza-benzo[f]azulene] | 78 °C | > 7.52 | > 7.52 | –
CN1CCC(OC2c3ccccc3CCn3cc(C#Cc4cccnc4)nc32)CC1 (stereo not drawn) [Example 63, 4-(1-methylpiperidin-4-yloxy)-2-pyridin-3-ylethynyl-9,10-dihydro-4H-3,10a-diaza-benzo[f]azulene] | – | – | – | > 6.00
COc1ccc(-c2nc3n(c2C)CCc2ccccc2C3OC2CCN(C)CC2)cc1 (stereo not drawn) [Example 156, 2-(4-methoxyphenyl)-1-methyl-4-(1-methylpiperidin-4-yloxy)-9,10-dihydro-4H-3,10a-diaza-benzo[f]azulene] | 164 °C | > 7.52 | > 7.52 | –
Cc1ccc(-c2nc3n(c2C)CCc2ccccc2C3OC2CCN(C)CC2)cc1 (stereo not drawn) [Example 153, 1-methyl-4-(1-methylpiperidin-4-yloxy)-2-p-tolyl-9,10-dihydro-4H-3,10a-diaza-benzo[f]azulene] | 181 °C | > 7.52 | > 7.52 | –
COc1cccc(-c2nc3n(c2C)CCc2ccccc2C3OC2CCN(C)CC2)c1 (stereo not drawn) [Example 150, 2-(3-methoxyphenyl)-1-methyl-4-(1-methypiperidin-4-yloxy)-9,10-dihydro-4H-3,10a-diaza-benzo[f]azulene] | 138 °C | > 7.52 | > 7.52 | –
CN1CCC(OC2c3ccccc3CCn3cc(-c4ccccc4)nc32)CC1 (stereo not drawn) [Example 4, 4-(1-methylpiperidin-4-yloxy)-2-phenyl-9,10-dihydro-4H-3,10a-diaza-benzo[f]azulene] | 113 °C | > 6.52 | > 6.52 | –
CN1CCC(OC2c3ccccc3CCn3c2nc(-c2ccc(Br)cc2)c3Cl)CC1 (stereo not drawn) [Example 127, 2-(4-bromophenyl)-1-chloro-4-(1-methylpiperidin-4-yloxy)-9,10-dihydro-4H-3,10a-diaza-benzo[f]azulene] | 169 °C | > 7.52 | > 7.52 | –
CN1CCC(OC2c3ccccc3CCn3cc(-c4ccc(Br)cc4)nc32)CC1 (stereo not drawn) [Example 81, 2-(4-bromophenyl)-4-(1-methylpiperidin-4-yloxy)-9,10-dihydro-4H-3,10a-diaza-benzo[f]azulene] | 142 °C | > 7.52 | > 7.52 | –
Cc1cccc(-c2nc3n(c2C)CCc2ccccc2C3OC2CCN(C)CC2)c1 (stereo not drawn) [Example 144, 1-methyl-4-(1-methylpiperidin-4-yloxy)-2-m-tolyl-9,10-dihydro-4H-3,10a-diaza-benzo[f]azulene] | 66 °C | > 7.52 | > 7.52 | –
CN1CCC(OC2c3ccccc3CCn3c2nc(-c2ccccc2)c3CO)CC1 (stereo not drawn) [Example 257, [4-(1-methylpiperidin-4-yloxy)-2-phenyl-9,10-dihydro-4H-3,10a-diaza-benzo[f]azulen-1-yl]-methanol] | 120 °C | > 6.52 | > 6.52 | –
Cc1ccccc1-c1nc2n(c1C)CCc1ccccc1C2OC1CCN(C)CC1 (stereo not drawn) [Example 147, 1-methyl-4-(1-methylpiperidin-4-yloxy)-2-o-tolyl-9,10-dihydro-4H-3,10a-diaza-benzo[f]azulene] | 74 °C | > 7.52 | > 7.52 | –
CN1CCC(OC2c3ccccc3CCn3c2nc(I)c3C#N)CC1 (stereo not drawn) [Example 221, 2-iodo-4-(1-methylpiperidin-4-yloxy)-9,10-dihydro-4H-3,10a-diaza-benzo[f]azulene-1-carbonitrile] | 195 °C | – | > 6.00 | –
COc1cccc(-c2cccc3c2CCn2cc(-c4ccccc4)nc2C3OC2CCN(C)CC2)c1 (stereo not drawn) [Example 241, 8-(3-methoxyphenyl)-4-(1-methylpiperidin-4-yloxy)-2-phenyl-9,10-dihydro-4H-3,10a-diaza-benzo[f]azulene] | 93 °C | – | > 6.52 | –
CN1CCC(OC2c3ccccc3CCn3cc(-c4ccc(N)cc4)nc32)CC1 (stereo not drawn) [Example 16, 4-[4-(1-methylpiperidin-4-yloxy)-9,10-dihydro-4H-3,10a-diaza-benzo[f]azulen-2-yl]-phenylamine] | 197 °C | – | > 6.00 | –
CN1CCC(OC2c3ccccc3CCn3c2nc(-c2ccc(C(=O)OC(C)(C)C)cc2)c3C#N)CC1 (stereo not drawn) [Example 224, 4-[1-cyano-4-(1-methylpiperidin-4-yloxy)-9,10-dihydro-4H-3,10a-diaza-benzo[f]azulen-2-yl]-benzoic acid tert-butyl ester] | 95 °C | – | > 7.52 | –

SMILES | melting point | pIC50 (human H4 receptor [1]) | pKi (human H4 receptor [2]) | pKi (human H4 receptor [3])
Cc1c(-c2ccc(F)cc2)nc2n1CCc1ccccc1C2OC1CCN(C)CC1 (stereo not drawn) [Example 154, 2-(4-fluorophenyl)-1-methyl-4-(1-methylpiperidin-4-yloxy)-9,10-dihydro-4H-3,10a-diaza-benzo[f]azulene] | 168 °C | – | > 7.52 | –
CN1CCC(OC2c3cccc(CCc4ccccc4)c3CCn3cc(-c4ccccc4)nc32)CC1 (stereo not drawn) [Example 249, 4-(1-methyl-piperidin-4-yloxy)-8-phenethyl-2-phenyl-9,10-dihydro-4H-3,10a-diaza-benzo[f]azulene] | 67 °C | – | > 6.00 | –
Cc1c(C(=O)N(C)c2ccccc2)nc2n1CCc1ccccc1C2OC1CCN(C)CC1 (stereo not drawn) [Example 204, 1-methyl-4-(1-methylpiperidin-4-yloxy)-9,10-dihydro-4H-3,10a-diaza-benzo[f]azulene-2-carboxylic acid methylphenylamide] | 75 °C | – | > 6.00 | –
CSc1cccc2c1CCn1cc(-c3ccccc3)nc1C2OC1CCN(C)CC1 (stereo not drawn) [Example 234, 4-(1-methylpiperidin-4-yloxy)-8-methylsulfanyl-2-phenyl-9,10-dihydro-4H-3,10a-diaza-benzo[f]azulene] | 134 °C | – | > 6.00 | –
Cc1c(-c2ccc(C=CC(=O)OC(C)(C)C)cc2)nc2n1CCc1ccccc1C2OC1CCN(C)CC1 (stereo not drawn) [Example 151, 3-{4-[1-methyl-4-(1-methylpiperidin-4-yloxy)-9,10-dihydro-4H-3,10a-diaza-benzo[f]azulen-2-yl]-phenyl}-acrylic acid tert-butyl ester] | 185 °C | > 7.52 | > 7.52 | –
CN1CCC(OC2c3ccccc3CC(C)(C)n3cc(-c4ccccc4)nc32)CC1 (stereo not drawn) [Example 230, 10,10-dimethyl-4-(1-methylpiperidin-4-yloxy)-2-phenyl-9,10-dihydro-4H-3,10a-diaza-benzo[f]azulene] | 85 °C | – | > 6.00 | –
CN1CC(COC2c3ccccc3CCn3cc(I)nc32)C1 (stereo not drawn) [Example 7, 2-Iodo-4-(1-methylazetidin-3-ylmethoxy)-9,10-dihydro-4H-3,10a-diaza-benzo[f]azulene] | 100 °C | – | > 6.00 | –
CN1CCC(OC2c3ccccc3CCn3c(I)cnc32)CC1 (stereo not drawn) [Example 3, 1-iodo-4-(1-methylpiperidin-4-yloxy)-9,10-dihydro-4H-3,10a-diaza-benzo[f]azulene] | 163 °C | – | > 6.52 | –
Cc1c(-c2cccc(Cl)c2)nc2n1CCc1ccccc1C2OC1CCN(C)CC1 (stereo not drawn) [Example 145, 2-(3-chlorophenyl)-1-methyl-4-(1-methylpiperidin-4-yloxy)-9,10-dihydro-4H-3,10a-diaza-benzo[f]azulene] | 72 °C | > 7.52 | > 7.52 | –
CC(C)c1c(-c2ccccc2)nc2n1CCc1ccccc1C2OC1CCN(C)CC1.O=C(O)C(=O)O.O=C(O)C(=O)O (stereo not drawn) [Example 243, 1-isopropyl-4-(1-methylpiperidin-4-yloxy)-2-phenyl-9,10-dihydro-4H-3,10a-diaza-benzo[f]azulene dioxalate] | 90 °C | – | > 6.52 | –
Cc1ccc(-c2nc3n(c2C)CCc2ccccc2C3OC2CCN(C)CC2)c(Cl)c1 (stereo not drawn) [Example 157, 2-(2-chloro-4-methylphenyl)-1-methyl-4-(1-methylpiperidin-4-yloxy)-9,10-dihydro-4H-3,10a-diaza-benzo[f]azulene] | 133 °C | – | > 7.52 | –
Cc1c(-c2ccc(N3CCOC3=O)cc2)nc2n1CCc1ccccc1C2OC1CCN(C)CC1 (stereo not drawn) [Example 131, 3-{4-[1-methyl-4-(1-methylpiperidin-4-yloxy)-9,10-dihydro-4H-3,10a-diaza-benzo[f]azulen-2-yl]-phenyl}-oxazolidin-2-one] | 214 °C | – | > 6.52 | –
CN1CCC(OC2c3cccc(-c4cccc(N)c4)c3CCn3cc(-c4ccccc4)nc32)CC1 (stereo not drawn) [Example 242, 3-[4-(1-methylpiperidin-4-yloxy)-2-phenyl-9,10-dihydro-4H-3,10a-diaza-benzo[f]azulen-8-yl]-phenylamine] | 120 °C | – | > 6.00 | –
Cc1c(-c2ccc(Cl)cc2)nc2n1CCc1ccccc1C2OC1CCN(C)CC1 (stereo not drawn) [Example 155, 2-(4-chlorophenyl)-1-methyl-4-(1-methylpiperidin-4-yloxy)-9,10-dihydro-4H-3,10a-diaza-benzo[f]azulene] | 158 °C | – | > 7.52 | –
Cc1c(-c2ccccc2F)nc2n1CCc1ccccc1C2OC1CCN(C)CC1 (stereo not drawn) [Example 142, 2-(2-fluorophenyl)-1-methyl-4-(1-methylpiperidin-4-yloxy)-9,10-dihydro-4H-3,10a-diaza-benzo[f]azulene] | 68 °C | > 7.52 | > 6.52 | –
